Measured values taken from US20250230171A1 (MOMA Therapeutics, Inc., priority 2023, published 2025).
Where two headings read alike, the source gives them in different places.

Tests used:
DLD1 BRCA2 (−/−) cells = assay: 7-day cell viability assay (CellTiter-Glo), DLD1 BRCA2 (−/−); assay type: cell-based, human; conditions: 7-day CellTiter-Glo, n=2, read-out: Viability IC50 (uM) DLD1 BRCA2 null
Procedure: (§1) Cell lines DLD1 WT and DLD1 BRCA2 (−/−) (Horizon Discovery Cat No. HD PAR-008 and HD-105-007) were plated in 384-well culture plates at seeding densities of 100cells/50 ul/well and 200 cells/50 uL/well respectively. The seeding densities are pre-determined from the growth curve kinetics performed to ensure log linear phase of cell growth for these 2 cell lines. These assay plates are then placed in the incubator at 37° C., 5% CO2, relative humidity >90% for a few hours before addition of test compounds. Compounds are dispensed using the Tecan HPD300 or Echo based on the plate map in the appropriate wells of the 384-well plates. The cells are treated with nine-point dose response with 3-fold serial dilutions of test compounds starting at 10 uM top concentration. After addition of the test compounds, the plates are incubated at 37° C., 5% CO2, relative humidity >90% for 7 days. CellTiter-Glo (Promega Cat. No. G7573), ATP detection reagent is prepared according to manufacturer's specifications. Cell assay plates are removed from incubator and bring to room temperature (RT) by letting them sit at bench top for at least 15 min. Using the MultiDrop liquid handler or a multichannel pipette, 35 μL/well of CTG is added and the plates are then placed shakes for 5 seconds, RT.

DLD1 WT cells = assay: 7-day cell viability assay (CellTiter-Glo), DLD1 parental (WT); assay type: cell-based, human; conditions: n=2
Procedure: as §1

[1] = molecular target: biotinylated Avi-POLθ[2-894] (Homo sapiens (Human), UniProt O75417); assay: POLθ ATPase assay (ADP-Glo); conditions: n=2; read-out: Biochemical ATPase ADPGlo IC50
Chain of biotinylated Avi-POLθ[2-894] (O75417 2-894): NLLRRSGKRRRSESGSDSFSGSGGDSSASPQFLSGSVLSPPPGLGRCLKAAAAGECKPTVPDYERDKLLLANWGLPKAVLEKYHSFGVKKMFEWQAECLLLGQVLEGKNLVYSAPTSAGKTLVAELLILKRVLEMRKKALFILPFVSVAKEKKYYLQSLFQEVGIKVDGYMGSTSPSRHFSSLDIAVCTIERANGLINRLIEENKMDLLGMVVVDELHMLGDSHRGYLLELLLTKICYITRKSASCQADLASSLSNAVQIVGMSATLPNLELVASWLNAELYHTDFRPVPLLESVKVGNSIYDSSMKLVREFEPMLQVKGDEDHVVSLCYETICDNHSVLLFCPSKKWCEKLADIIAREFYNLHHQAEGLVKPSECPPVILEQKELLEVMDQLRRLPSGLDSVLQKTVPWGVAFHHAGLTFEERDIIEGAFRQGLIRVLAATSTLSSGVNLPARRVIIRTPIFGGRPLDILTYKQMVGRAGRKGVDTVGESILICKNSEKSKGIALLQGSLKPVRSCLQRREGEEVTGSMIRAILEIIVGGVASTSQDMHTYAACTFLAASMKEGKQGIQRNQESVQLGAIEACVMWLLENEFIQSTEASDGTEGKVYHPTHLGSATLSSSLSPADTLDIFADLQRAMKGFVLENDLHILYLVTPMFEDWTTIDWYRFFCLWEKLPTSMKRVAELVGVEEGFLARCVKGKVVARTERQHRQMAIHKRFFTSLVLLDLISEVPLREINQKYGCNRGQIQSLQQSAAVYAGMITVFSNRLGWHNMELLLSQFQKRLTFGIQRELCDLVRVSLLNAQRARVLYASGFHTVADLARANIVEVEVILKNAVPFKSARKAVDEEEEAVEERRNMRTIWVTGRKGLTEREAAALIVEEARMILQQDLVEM

[2] = Homo sapiens, DLD-1, 168 h, 7-day CellTiter-Glo

Compound | IC50 (DLD1 BRCA2 (−/−) cells; Homo sapiens, DLD-1, 168 h) [µM] | IC50 (DLD1 WT cells; [2]) [µM] | further results
COc1cnc(Cl)cc1-c1cc(C)ncc1C(=O)Nc1nc2c(s1)CN(C(=O)c1ccc(OC(F)F)cc1)C2 | 0.001 to 0.1 | ≥ 10 | 
COc1cnc(Cl)cc1-c1cc(C)ncc1C(=O)Nc1nc2c(s1)CN(C(=O)c1nc(C)cnc1C)C2 | 0.1 to 0.25 | ≥ 10 | 
COc1cnc(Cl)cc1-c1cc(C)ncc1C(=O)Nc1nc2c(s1)CN(C(=O)c1cc(C)nc3ccnn13)C2 | 0.001 to 0.1 | ≥ 10 | 
COc1cnc(Cl)cc1-c1cc(C)ncc1C(=O)Nc1nc2c(s1)CN(C(=O)c1ccc(C)c(Cl)n1)C2 | 0.001 to 0.1 | ≥ 10 | 
COc1cnc(Cl)cc1-c1cc(C)ncc1C(=O)Nc1nc2c(s1)CN(C(=O)c1nc(C(F)F)ccc1F)C2 | 0.001 to 0.1 | ≥ 10 | 
COc1cnc(Cl)cc1-c1cc(C)ncc1C(=O)Nc1nc2c(s1)CN(C(=O)c1ncc(C(F)F)cc1C)C2 | 0.001 to 0.1 | ≥ 10 | 
COc1cnc(Cl)cc1-c1cc(C)ncc1C(=O)Nc1nc2c(s1)CN(C(=O)c1cc(Cl)cnc1C)C2 | 0.001 to 0.1 | ≥ 10 | 
COc1cnc(Cl)cc1-c1cc(C)ncc1C(=O)Nc1nc2c(s1)CN(C(=O)c1ccc(C(F)F)c(C)n1)C2 | 0.001 to 0.1 | ≥ 10 | 
COc1cnc(Cl)cc1-c1cc(C)ncc1C(=O)Nc1nc2c(s1)CN(C(=O)c1nc(C(F)F)ccc1C)C2 | 0.001 to 0.1 | ≥ 10 | 
COc1cnc(Cl)cc1-c1cc(C)ncc1C(=O)Nc1nc2c(s1)CN(C(=O)c1ncc(OC(F)F)cc1Cl)C2 | 0.1 to 0.25 | ≥ 10 | 
COc1cnc(Cl)cc1-c1cc(C)ncc1C(=O)Nc1nc2c(s1)CN(C(=O)c1ccn3nccc3n1)C2 | 0.001 to 0.1 | ≥ 10 | 
COc1cnc(Cl)cc1-c1cc(C)ncc1C(=O)Nc1nc2c(s1)CN(C(=O)c1ccc(C(F)F)c(Cl)n1)C2 | 0.001 to 0.1 | ≥ 10 | 
COc1cnc(Cl)cc1-c1cc(C)ncc1C(=O)Nc1nc2c(s1)CN(C(=O)c1ccc(C(F)F)c(OC)n1)C2 | 0.001 to 0.1 | 5 to 10 | 
COc1cnc(Cl)cc1-c1cc(C)ncc1C(=O)Nc1nc2c(s1)CN(C(=O)c1cnc(OC(F)F)cc1Cl)C2 | 0.001 to 0.1 | ≥ 10 | 
COc1cnc(Cl)cc1-c1cc(C)ncc1C(=O)Nc1nc2c(s1)CN(C(=O)c1cnc(OC(F)F)cc1C)C2 | 0.001 to 0.1 | ≥ 10 | 
COc1cnc(Cl)cc1-c1cc(C)ncc1C(=O)Nc1nc2c(s1)CN(C(=O)c1ncc(C(F)F)cc1F)C2 | 0.001 to 0.1 | ≥ 10 | 
COc1cnc(Cl)cc1-c1cc(C)ncc1C(=O)Nc1nc2c(s1)CN(C(=O)c1ccc(C(C)(F)F)cn1)C2 | 0.001 to 0.1 | ≥ 10 | 
COc1cnc(Cl)cc1-c1cc(C)ncc1C(=O)Nc1nc2c(s1)CN(C(=O)c1ncc(OC(F)F)cc1C)C2 | 0.001 to 0.1 | ≥ 10 | 
COc1cnc(Cl)cc1-c1cc(C)ncc1C(=O)Nc1nc2c(s1)CN(C(=O)c1ccc(C#N)c(C)n1)C2 | 0.001 to 0.1 | ≥ 10 | 
COc1ccc(C(F)F)c(C(=O)N2Cc3nc(NC(=O)c4cnc(C)cc4-c4cc(Cl)ncc4OC)sc3C2)n1 | 0.001 to 0.1 | ≥ 10 | 
COc1cnc(Cl)cc1-c1cc(C)ncc1C(=O)Nc1nc2c(s1)CN(C(=O)c1cc(Cl)c(C(F)F)cn1)C2 | 0.001 to 0.1 | 5 to 10 | 
COc1cnc(Cl)cc1-c1cc(C)ncc1C(=O)Nc1nc2c(s1)CN(C(=O)c1ncc(Cl)nc1C)C2 | 0.5 to 2 | ≥ 10 | 

Compound | IC50 (DLD1 BRCA2 (−/−) cells; Homo sapiens, DLD-1, 168 h) [µM] | IC50 (DLD1 WT cells; [2]) [µM] | further results
COc1cnc(Cl)cc1-c1cc(C)ncc1C(=O)Nc1nc2c(s1)CN(Cc1cccc(C(F)F)n1)C2 | 0.001 to 0.1 | ≥ 10 | 
COc1cnc(Cl)cc1-c1cc(C)ncc1C(=O)Nc1nc2c(s1)CN(C(=O)c1nc(C)c(C(F)F)nc1C)C2 | 0.001 to 0.1 | ≥ 10 | 
COc1cnc(Cl)cc1-c1cc(C)ncc1C(=O)Nc1nc2c(s1)CN(C(=O)c1nc(OC)c(Cl)nc1C)C2 | 0.001 to 0.1 | ≥ 10 | 
COc1cnc(Cl)cc1-c1cc(C)ncc1C(=O)Nc1nc2c(s1)CN(C(=O)c1nc(OC)c(C(F)F)cc1C)C2 | 0.001 to 0.1 | ≥ 10 | 
COc1cnc(Cl)cc1-c1cc(C)ncc1C(=O)Nc1nc2c(s1)CN(C(=O)c1nc(OC)c(Cl)cc1C)C2 | 0.001 to 0.1 | 5 to 10 | 
COc1cnc(Cl)cc1-c1cc(C)ncc1C(=O)Nc1nc2c(s1)CN(C(=O)c1nc(C)c(C(F)F)cc1Cl)C2 | 0.001 to 0.1 | ≥ 10 | 
COc1cnc(C(F)F)cc1-c1cc(C)ncc1C(=O)Nc1nc2c(s1)CN(C(=O)c1cccc(C(F)F)n1)C2 | 0.001 to 0.1 | ≥ 10 | 
COc1cnc(Cl)cc1-c1cc(C)ncc1C(=O)Nc1nc2c(s1)CN(C(=O)c1ncc(C(F)F)c(C)n1)C2 | 0.001 to 0.1 | ≥ 10 | 
COc1cnc(Cl)cc1-c1cc(C)ncc1C(=O)Nc1nc2c(s1)CN(C(=O)c1ccc(C(F)(F)F)c(C)n1)C2 | 0.001 to 0.1 | ≥ 10 | 
COc1cnc(Cl)cc1-c1cc(C)ncc1C(=O)Nc1nc2c(s1)CN(C(=O)c1cnc(C(F)(F)F)c(C)n1)C2 | 0.001 to 0.1 | 0.5 to 2 | 
COc1cnc(Cl)cc1-c1cc(C)ncc1C(=O)Nc1nc2c(s1)CN(C(=O)c1cc(C)c(C(F)(F)F)c(C)n1)C2 | 0.001 to 0.1 | ≥ 10 | 
COc1cnc(Cl)cc1-c1cc(C)ncc1C(=O)Nc1nc2c(s1)CN(C(=O)c1ncc(C(F)(F)F)c(C)c1C)C2 | 0.001 to 0.1 | ≥ 10 | 
COc1cnc(Cl)cc1-c1cc(C)ncc1C(=O)Nc1nc2c(s1)CN(C(=O)c1cc(C)c(C(F)(F)F)nc1C)C2 | 0.001 to 0.1 | ≥ 10 | 
COc1cnc(Cl)cc1-c1cc(C)ncc1C(=O)Nc1nc2c(s1)CN(C(=O)c1cnc(C(F)(F)F)c(C)c1C)C2 | 0.001 to 0.1 | ≥ 10 | 
2′-Chloro-5′-methoxy-6-methyl-N-(5-(3-methyl-5-(trifluoromethoxy)picolinoyl)-5,6-dihydro-4H-pyrrolo[3,4-d]thiazol-2-yl)-[4,4′-bipyridine]-3-carboxamide [Example 560] |  |  | IC50 (DLD1 BRCA2 (−/−) cells): 0.001 to 0.1 µM; IC50 (DLD1 WT cells; 7-day CellTiter-Glo): ≥ 10 µM
2′-Chloro-5′-methoxy-6-methyl-N-(5-(3-methylpyrazine-2-carbonyl)-5,6-dihydro-4H-pyrrolo[3,4-d]thiazol-2-yl)-[4,4′-bipyridine]-3-carboxamide [Example 412] |  |  | IC50 [1]: 1 to 15 nM; IC50 (DLD1 WT cells; 7-day viability): ≥ 10 µM
2′-Chloro-5′-methoxy-6-methyl-N-(5-(4-methyl-6-(trifluoromethoxy)nicotinoyl)-5,6-dihydro-4H-pyrrolo[3,4-d]thiazol-2-yl)-[4,4′-bipyridine]-3-carboxamide [Example 561] |  |  | IC50 (DLD1 BRCA2 (−/−) cells): 0.001 to 0.1 µM; IC50 (DLD1 WT cells; 7-day CellTiter-Glo): ≥ 10 µM
2′-Chloro-5′-methoxy-6-methyl-N-(5-(6-methyl-5-(trifluoromethoxy)picolinoyl)-5,6-dihydro-4H-pyrrolo[3,4-d]thiazol-2-yl)-[4,4′-bipyridine]-3-carboxamide [Example 555] |  |  | IC50 (DLD1 BRCA2 (−/−) cells): 0.001 to 0.1 µM; IC50 (DLD1 WT cells; 7-day CellTiter-Glo): ≥ 10 µM
2′-Chloro-N-(5-(3,5-dimethoxypyrazine-2-carbonyl)-5,6-dihydro-4H-pyrrolo[3,4-d]thiazol-2-yl)-5′-methoxy-6-methyl-[4,4′-bipyridine]-3-carboxamide [Example 413] |  |  | IC50 (DLD1 BRCA2 (−/−) cells): 0.001 to 0.1 µM; IC50 (DLD1 WT cells; 7-day CellTiter-Glo): ≥ 10 µM
2′-Chloro-N-(5-(5,6-dimethylpyrazine-2-carbonyl)-5,6-dihydro-4H-pyrrolo[3,4-d]thiazol-2-yl)-5′-methoxy-6-methyl-[4,4′-bipyridine]-3-carboxamide [Example 410] |  |  | IC50 (DLD1 BRCA2 (−/−) cells): 0.001 to 0.1 µM; IC50 (DLD1 WT cells; 7-day CellTiter-Glo): ≥ 10 µM
2′-Chloro-N-(5-(5-(difluoromethyl)-3-methoxypyrazine-2-carbonyl)-5,6-dihydro-4H-pyrrolo[3,4-d]thiazol-2-yl)-5′-methoxy-6-methyl-[4,4′-bipyridine]-3-carboxamide [Example 418] |  |  | IC50 (DLD1 BRCA2 (−/−) cells): 0.001 to 0.1 µM; IC50 (DLD1 WT cells; 7-day CellTiter-Glo): 5 to 10 µM
